Results from patent US8586577B2, “Diazepane acetamide derivatives as selective 11B-HSD1 inhibitors” (Merck Patent GmbH, priority 2006, dated 2013).

Legend:
Assay type in all cases: biochemical
mouse 11-beta HSD-1 = molecular target: T1, mouse 11-beta HSD-1 (Mus musculus, UniProt P50172); assay: 11beta-HSD1 enzyme assay, mice liver microsome fractions, HTRF cortisol detection; settings: for IC50: read-out: Inhibition of mouse 11-beta HSD-1 IC50
T1 construct: or as microsome fractions from mice liver (2.5 μg); tissue TEBU; host or cells: mouse liver microsome fractions
T1 sequence (P50172 whole entry): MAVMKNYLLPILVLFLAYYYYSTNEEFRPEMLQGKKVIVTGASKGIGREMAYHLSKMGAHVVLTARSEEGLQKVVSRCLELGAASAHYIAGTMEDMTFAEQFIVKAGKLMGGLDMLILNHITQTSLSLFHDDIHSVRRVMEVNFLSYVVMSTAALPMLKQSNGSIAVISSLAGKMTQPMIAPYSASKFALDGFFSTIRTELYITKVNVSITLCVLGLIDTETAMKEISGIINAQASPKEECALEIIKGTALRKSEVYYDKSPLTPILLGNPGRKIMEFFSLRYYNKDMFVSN
Procedure: (§1) Human recombinant 11beta-hydroxysteroid dehydrogenase type 1 (11beta-HSD1) enzyme and type 2 (11beta-HSD2) enzymes were expressed expressed in E. coli. Mice liver microsome fractions were purchased from TEBU.
(§2) The 11beta-HSD1 enzyme assay was carried out in 96 well microliter plates in a total volume of 100 μl containing 30 mM Hepes buffer, pH 7.4 with 1 mM EDTA, substrate mixture cortisone/NADPH (200 nM/200 μM), G-6-P (1 mM) and inhibitors in serial dilutions. Reactions were initiated by addition of 10 μl 11beta-HSD1 (3 μg) from E. coli, or as microsome fractions from mice liver (2.5 μg). Following mixing, the plates were shaken for 150 minutes at 37° C. The reactions were terminated with 10 μl Acid-18beta glycyrrhetinic stop solution. Determinations of cortisol levels in 11 beta-HSD1 preparations were monitored by HTRF (HTRF cortisol assay from C is bio international).
(§3) Activity is expressed in % of control or concentration to inhibit 50% of the enzyme activity (IC50).

human 11-beta HSD-2 = molecular target: T2, human 11-beta HSD-2 (Homo sapiens, UniProt P80365); assay: 11beta-HSD2 enzyme assay, human recombinant enzyme (cortisol, NAD, carbenoxolone stop); settings: for IC50: read-out: Inhibition of human 11-beta HSD-2 IC50; for Selectivity Ratio human HSD2/HSD1: ratio of IC50 human HSD-2 to human HSD-1
T2 construct: made in house; host or cells: E. coli
T2 sequence (P80365 1-405): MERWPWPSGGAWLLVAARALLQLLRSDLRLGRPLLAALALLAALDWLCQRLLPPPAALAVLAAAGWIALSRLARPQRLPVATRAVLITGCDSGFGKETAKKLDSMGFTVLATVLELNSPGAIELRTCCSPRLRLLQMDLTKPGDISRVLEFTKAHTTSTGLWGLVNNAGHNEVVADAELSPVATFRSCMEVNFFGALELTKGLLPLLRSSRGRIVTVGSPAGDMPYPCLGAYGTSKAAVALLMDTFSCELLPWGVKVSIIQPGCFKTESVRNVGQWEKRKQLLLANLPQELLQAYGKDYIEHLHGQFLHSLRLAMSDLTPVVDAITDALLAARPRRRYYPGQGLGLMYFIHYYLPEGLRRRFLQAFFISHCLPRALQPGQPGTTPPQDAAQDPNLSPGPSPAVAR
Procedure: [Worded in the source for another target; used here, by the source, with some conditions changed.] as §1, §2, §3

human 11-beta HSD-1 = molecular target: T3, human 11-beta HSD-1 (Homo sapiens, UniProt P28845); assay: 11beta-HSD1 enzyme assay, human recombinant enzyme from E. coli, HTRF cortisol detection; settings: cortisone/NADPH 200 nM/200 μM, 150 min at 37° C., read-out: Inhibition of human 11-beta HSD-1 IC50
T3 construct: made in house; host or cells: E. coli
T3 sequence (P28845 whole entry): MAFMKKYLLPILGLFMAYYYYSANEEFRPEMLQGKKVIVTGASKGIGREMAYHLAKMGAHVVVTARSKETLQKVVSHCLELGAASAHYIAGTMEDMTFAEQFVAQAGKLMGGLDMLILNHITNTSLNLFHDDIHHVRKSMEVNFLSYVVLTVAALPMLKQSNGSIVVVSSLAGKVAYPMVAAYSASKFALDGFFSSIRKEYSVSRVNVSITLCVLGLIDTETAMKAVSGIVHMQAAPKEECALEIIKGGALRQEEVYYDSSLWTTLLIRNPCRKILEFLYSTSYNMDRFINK
Procedure: as §1, §2, §3

O=C(CN1CCCN(S(=O)(=O)c2ccccc2Cl)CC1)N1CCCC2CCCCC21 (centres unmarked) [Ex 2, 2-[4-(2-Chloro-benzenesulfonyl)-[1,4]diazepan-1-yl]-1-(octahydro-quinolin-1-yl)-ethanone]
IC50 (mouse 11-beta HSD-1): 250 nM
Inhibition of human 11-beta HSD-2, activity in % of control (human 11-beta HSD-2; at 10 μM, human recombinant enzyme): 81% of Ctrl

O=C(CN1CCCN(S(=O)(=O)c2ccccc2F)CC1)N1CCCC2CCCCC21 (centres unmarked) [Ex 2-1, 2-[4-(2-Fluoro-benzenesulfonyl)-[1,4]diazepan-1-yl]-1-(octahydro-quinolin-1-yl)-ethanone]
IC50 (human 11-beta HSD-1): 27 nM
Inhibition of mouse 11-beta HSD-1, activity in % of control (mouse 11-beta HSD-1; at 1 μM): 53% of Ctrl
IC50 (human 11-beta HSD-2; human recombinant enzyme): 3000 nM
Selectivity Ratio human HSD2/HSD1 (human 11-beta HSD-2): 111

O=C(CN1CCCN(S(=O)(=O)c2c(F)cccc2F)CC1)N1CCCC2CCCCC21 (centres unmarked) [Ex 2-2, 2-[4-(2,6-Difluoro-benzenesulfonyl)-[1,4]diazepan-1-yl]-1-(octahydro-quinolin-1-yl)-ethanone]
IC50 (human 11-beta HSD-1): 17 nM

O=C(CN1CCCN(S(=O)(=O)c2ccccc2F)CC1)N(C1CCCCC1)C1CC1 [Ex 3, N-Cyclohexyl-N-cyclopropyl-2-[4-(2-fluoro-benzenesulfonyl)-[1,4]diazepan-1-yl]-acetamide]
IC50 (human 11-beta HSD-1): 76 nM
IC50 (mouse 11-beta HSD-1): 230 nM
IC50 (human 11-beta HSD-2; human recombinant enzyme): 7000 nM
Selectivity Ratio human HSD2/HSD1 (human 11-beta HSD-2): 92

CN(C(=O)CN1CCCN(S(=O)(=O)c2ccccc2F)CC1)C1CCCCC1 [Ex 3-3, N-Cyclohexyl-2-[4-(2-fluoro-benzenesulfonyl)-[1,4]diazepan-1-yl]-N-methyl-acetamide]
IC50 (human 11-beta HSD-1): 430 nM

O=C(CN1CCCN(S(=O)(=O)c2ccccc2Cl)CC1)N1CCCCC1 [Ex 3-6, 2-[4-(2-Chloro-benzenesulfonyl)-[1,4]diazepan-1-yl]-1-piperidin-1-yl-ethanone]
IC50 (human 11-beta HSD-1): 420 nM

O=C(CN1CCCN(S(=O)(=O)c2ccccc2F)CC1)N1CCC2(C=Cc3ccccc32)CC1 [Ex 3-10, 2-[4-(2-fluoro-benzenesulfonyl)-[1,4]diazepan-1-yl]-1-spiro[1H-inden-1,4′piperidin-1-yl)-ethanone]
IC50 (human 11-beta HSD-1): 122 nM
